Here are results for 6 compounds from patent US20080311126A1, “Antisense Oligonucleotides Directed to Ribonucleotide Reducatase R2 and Uses Thereof in Combination Therapies for the Treatment of Cancer” (Genesense Technologies, Inc, priority 2004, published 2008).

One series deals with Hela 1 mM cells. Description: Sensitization to chemotherapeutics by AS-II-2229B-20, relative colony forming efficiency. The note with it: HeLa 1 mM. It is filed as cell-based, human. On the procedure: (§1) Colony forming efficiency was determined using standard protocols. Briefly, the cells were cultured for 24 hours at 37° C. in growth medium with 10% fetal bovine serum. The cells were washed in 5 ml phosphate buffered saline, pH 7.2, once prior to lipofectin +/−oligonucleotide treatment.
(§2) The test oligonucleotides were added to cell cultures in the presence of 2.5 μg of DOTMA/DOPE (Lipofectin; Life Technologies, Inc.) for four hours. The oligonucleotide was tested at 0.2 μM unless otherwise indicated. Controls were the cultures treated with lipofectin but without the oligonucleotide. After 4 hours the medium containing the oligonucleotide was removed and washed with 5 ml of growth medium. The cells were then cultured in growth medium containing 10% fetal bovine serum for seven to ten days. Surviving cells were visualized by methylene blue staining, and colonies were scored. In some experiments cell aliquots were removed from the culture and viability was determined using the trypan blue exclusion test. Results were analyzed as percent of surviving cells compared to control cells.
(§3) Treatment of human tumour cells with very low concentrations of short antisense sequences was tested to determine if these constructs could sensitize the tumour cells to inhibitory effects of other chemotherapeutic drugs.

For series [1], the system named is Hela S3 cells. Described as above. It is filed as cell-based, human. The note with it: HeLa S3. On the procedure: as §1, §2, §3
Series [2] has as its system HT-29 human colon cancer cells. Description: HT-29 colon tumour xenograft in CD-1 nude mice. The format is in vivo. On the procedure: HT-29 human colon cancer cells (3×10^6 cells in 100 μl of PBS) were subcutaneously injected into the right flank of 6-7 weeks old female CD-1 nude mice. After the size of tumour reached an approximate volume of 50 mm^3, 4 days post tumour cell injection, mitomycin C was administered by bolus infusion into the tail vein at days 4, 11 and 18 with a dose of 3.5 mg/kg/week. Antitumour effect of mitomycin C was further compared to that of SEQ ID NO:1 in combination with mitomycin C. SEQ ID NO:1 was administered by bolus infusion into the tail vein every day at 6 mg/kg and mitomycin C was administered intravenously at days 4, 11 and 18 with a dose of 3.5 mg/kg/week, one hour after the treatments with SEQ ID NO:1. Control animals received saline alone for the same period as SEQ ID NO:1. All treatments were stopped at day 22. A day after the last treatment, tumours were excised from the animals and their weights were measured.
HT-29 human colon cancer cells (3×10^6 cells in 100 μl of PBS) were subcutaneously injected into the right flank of 5-6 week old female CD-1 nude mice. After the size of tumour reached an approximate volume of 100 mm^3, 7 days post tumour cell injection, SEQ ID NO:1 was administered by bolus infusion into the tail vein every other day at 10 mg/kg. Control animals received saline alone for the same period. Antitumour effect of SEQ ID NO:1 was further compared to that of CPT-11 alone or that of SEQ ID NO:1 in combination with CPT-11. CPT-11 was administered intraperitoneally for 5 days in a row from […] with a dose of 20 mg/kg in 100 μl saline. All treatments were stopped at day 32. A day after the last treatment, tumours were excised from the animals and their weights were measured.
HT-29 human colon cancer cells (3×10^6 cells in 100 μl of PBS) were subcutaneously injected into the right flank of 6-7 week old female CD-1 nude mice. Treatments started at day 5 post tumour cell injection, SEQ ID NO:1 and 5-FU were administered as outlined below: • Groups and treatment: • Group 1. Saline treated group: saline:0.1 ml/2 days, i.v.; • Group 2. SEQ ID NO:1 treated group: 10 mg/kg/2 days in 100 μL saline, i.v.; • Group 3. 5-FU treated group:13 mg/kg/5 days/week (one week on and one week off), i.v.; • Group 4. SEQ ID NO:1 plus 5-FU treated group.
HT-29 human colon cancer cells (3×10^6 cells in 100 μl of PBS) were subcutaneously injected into the right flank of 5-6 week old female CD-1 nude mice. Treatments started 4 days post tumour cell injection, SEQ ID NO: 1 and Capecitabine were administered as outlined below: • Group and Treatment: • Group 1: treated with 0.2 ml vehicle solution for capecitabine, o.p.; • Group 2: treated with 0.1 ml saline, i.v.; • Group 3: treated with 359 mg/kg/day×5/w Capecitabine in 0.2 ml vehicle solution, o.p.; • Group 4: treated with 10 mg/kg/2 days SEQ ID NO:1 in 0.1 ml saline i.v.; • Group 5: treated with 10 mg/kg/2 days SEQ ID NO:1 in 0.1 ml saline, i.v. plus 359 mg/kg/day×5/w capecitabine in 0.2 ml vehicle solution, o.p.

The test system of series [3] is Hela S3 cells. Description: Relative colony forming efficiency, lipofectin +/- oligonucleotide 4 hours. The note with it: Hela S3 cervix carcinoma cells; averages of 2-8 determinations. It is filed as cell-based, human. The method in brief: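 HeLa S3 cells were exposed to phosphorothioate antisense oligonucleotide (0.2 μM unless stated) with lipofectin for 4 h, then grown 7–10 days in 10% FBS medium. Methylene blue-stained colonies were counted and expressed as percent survival relative to lipofectin-only controls.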

Series [4] relates to T24 bladder cell carcinoma. The series is described as follows: Relative colony forming efficiency (Example 17, Table 13). The format is cell-based, human. The note with it: averages of 2-8 determinations. The method in brief: (§4)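 Phosphorothioate antisense oligonucleotides were delivered to tumour cell cultures with 2.5 μg DOTMA/DOPE (Lipofectin) over four hours, at 0.2 μM unless otherwise indicated. Surviving colonies were stained with methylene blue and scored. Values are % inhibition of colony formation relative to lipofectin-only controls.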

Series [5] has as its system H596 lung adenosquamous carcinoma cells. The series is described as above. The format is cell-based, human. The note with it: averages of 2-8 determinations. The method in brief:
as §4

In series [6] the test system is MDA PaCa-2 pancreatic cell carcinoma. The series is described as above. The format is cell-based, human. The following applies: MIA PaCa-2 pancreatic cell carcinoma; averages of 2-8 determinations. The method in brief:
as §4

Series [7] has as its system MDA-MB-231 breast cell adenocarcinoma. Described as above. The format is cell-based, human. The following applies: averages of 2-8 determinations. The method in brief:
as §4

The test system of series [8] is HCT116 colon cell carcinoma. Described as above. It is filed as cell-based, human. The following applies: averages of 2-8 determinations. The method in brief: as §4
The subject of a further series is A549 lung cell carcinoma. The series is described as above. The note with it: averages of 2-8 determinations. The format is cell-based, human. The method in brief: as §4
Series [9] deals with PC-3 prostrate cell adenocarcinoma. Described as above. The note with it: averages of 2-8 determinations. The format is cell-based, human. The method in brief:
as §4

Series [10] relates to HepG2 hepatocellular carcinoma. The series is described as above. The format is cell-based, human. The following applies: averages of 2-8 determinations. The method in brief:
as §4

For series [11], the system named is T-47D breast ductal carcinoma. The series is described as above. It is filed as cell-based, human. The note with it: averages of 2-8 determinations. The method in brief:
as §4

Where [12] appears, read: drug 40 μM, with AS-II-2229B-20 0.02 μM.
Where [13] appears, read: drug 40 μM, without AS-II-2229B-20.
Setting [14] is: drug 60 μM, with AS-II-2229B-20 0.02 μM.
Setting [15] is: drug 60 μM, without AS-II-2229B-20.
Where [16] appears, read: drug 20 μM, with AS-II-2229B-20 0.02 μM.
[17] abbreviates: drug 20 μM, without AS-II-2229B-20.

Oligonucleotides are written 5' to 3', each unit as a sugar letter and its base; * is a phosphorothioate linkage, no mark a phosphodiester; rarer units and linkages stand in square brackets, end groups in braces. Plain capitals give the bases only. d = 2'-deoxy (DNA)

Take `CN(Cc1cnc2nc(N)nc(N)c2n1)c1ccc(C(=O)N[C@@H](CCC(=O)O)C(=O)O)cc1` [MTX, methotrexate]: the “Relative colony Forming Efficiency” value in the series on Hela 1 mM cells (setting [12]) turned out to be 6.5 ± 5.5; in the series with Hela 1 mM cells (setting [13]), 28 ± 10; with Hela 1 mM cells (setting [14]) it was 3.5 ± 0.5; in the series with Hela 1 mM cells (setting [15]), 12 ± 0.5; in the series with Hela S3 cells [1] (setting [12]) it was 25 ± 5; with Hela S3 cells [1] (setting [13]), 118 ± 32. Besides, the results for the “Relative colony Forming Efficiency” value in the series on Hela S3 cells [1] (setting [14]) and in the series on Hela S3 cells [1] (setting [15]) were 0 and 116 ± 13, respectively.

Regarding `CO[C@@]12[C@H](COC(N)=O)C3=C(C(=O)C(C)=C(N)C3=O)N1C[C@@H]1N[C@@H]12` [Mitomycin C, reference compound], the “antitumour effect (tumour weight)” value in [2] (Example 12.1, mitomycin C 3.5 mg/kg/week i.v., SEQ ID NO:1 6 mg/kg every day i.v.) was “significant delay of tumour growth”. Also, the “Tumour weight as % of saline control” value in [2] (HT-29 (colon), Mouse CD-1, Mitomycin C study) was 15%.

Take `O=C(O)C[C@H](NC(=O)CP(=O)(O)O)C(=O)O` [PALA, N-(phosphonacetyl)-L-aspartate]: the “Relative colony Forming Efficiency” value is on record as 108 ± 7.5 in the series on Hela 1 mM cells (setting [16]); 377 ± 21 with Hela 1 mM cells (setting [17]); 101 ± 2.0 in the series on Hela 1 mM cells (drug 30 μM, with AS-II-2229B-20 0.02 μM); 311 ± 9.5 with Hela 1 mM cells (drug 30 μM, without AS-II-2229B-20); 90 ± 10 in the series with Hela S3 cells [1] (setting [16]); 350 ± 50 in the series with Hela S3 cells [1] (setting [17]).

For “GCAGCGAAGCAGAGCGAGCA (antisense dG*dC*dA*dG*dC*dG*dA*dA*dG*dC*dA*dG*dA*dG*dC*dG*dA*dG*dC*dA) [AS-II-166-20]”, the “Reduced relative colony forming efficiency, Hela S3 (% inhibition of colony forming ability)” value with Hela S3 cells [3] came out at 80.1%. Further, the “Reduced relative colony forming efficiency, T24 (% inhibition of colony forming ability)” value in series [4] amounted to 68.99%. The “Reduced relative colony forming efficiency, 11596 (% inhibition of colony forming ability)” value in series [5] was found to be 61.99%. Moreover, the “Reduced relative colony forming efficiency, MIA PaCa-2 (% inhibition of colony forming ability)” value in series [6] turned out to be 91.36%. The “Reduced relative colony forming efficiency, MDA-MB-231 (% inhibition of colony forming ability)” value in [7] is reported as 29.02%. Also, the “Reduced relative colony forming efficiency, HCT116 (% inhibition of colony forming ability)” value in [8] came out at 73.84%. In addition, the “Reduced relative colony forming efficiency, A549 (% inhibition of colony forming ability)” value with A549 lung cell carcinoma is on record as 81.1%. Also, in series [9], the “Reduced relative colony forming efficiency, PC-3 (% inhibition of colony forming ability)” value is on record as 74.11%. Besides, in [10], the “Reduced relative colony forming efficiency, HepG2 (% inhibition of colony forming ability)” value is recorded as 78.72%. Besides, the “Reduced relative colony forming efficiency, T-47D (% inhibition of colony forming ability)” value in series [11] was found to be 91.4%.

Take “GCTATTATCGCCGCCGTGAG (antisense dG*dC*dT*dA*dT*dT*dA*dT*dC*dG*dC*dC*dG*dC*dC*dG*dT*dG*dA*dG) [AS-II-1773-20]”: the “Reduced relative colony forming efficiency, Hela S3 (% inhibition of colony forming ability)” value with Hela S3 cells [3] was 80.27%. Moreover, in series [4], the “Reduced relative colony forming efficiency, T24 (% inhibition of colony forming ability)” value came out at 15.19%. In series [5], the “Reduced relative colony forming efficiency, 11596 (% inhibition of colony forming ability)” value was found to be 66.04%. In series [6], the “Reduced relative colony forming efficiency, MIA PaCa-2 (% inhibition of colony forming ability)” value turned out to be 45.68%. In addition, the “Reduced relative colony forming efficiency, MDA-MB-231 (% inhibition of colony forming ability)” value in series [7] was determined as 44.76%. In addition, in series [8], the “Reduced relative colony forming efficiency, HCT116 (% inhibition of colony forming ability)” value is on record as 75.58%. In addition, the “Reduced relative colony forming efficiency, A549 (% inhibition of colony forming ability)” value in the series with A549 lung cell carcinoma is 70.11%. Moreover, in [9], the “Reduced relative colony forming efficiency, PC-3 (% inhibition of colony forming ability)” value is reported as 70.04%. Also, the “Reduced relative colony forming efficiency, HepG2 (% inhibition of colony forming ability)” value in series [10] is reported as 58.19%. In addition, the “Reduced relative colony forming efficiency, T-47D (% inhibition of colony forming ability)” value in series [11] is reported as 84.38%.

As to “GGCGACCCCTCACTCCAGCA (antisense dG*dG*dC*dG*dA*dC*dC*dC*dC*dT*dC*dA*dC*dT*dC*dC*dA*dG*dC*dA) [AS-II-114-20]”, the “Reduced relative colony forming efficiency, Hela S3 (% inhibition of colony forming ability)” value in the series on Hela S3 cells [3] was found to be 79.25%. The “Reduced relative colony forming efficiency, T24 (% inhibition of colony forming ability)” value in [4] is on record as 87.45%. Also, the “Reduced relative colony forming efficiency, 11596 (% inhibition of colony forming ability)” value in series [5] was 46.3%. Also, the “Reduced relative colony forming efficiency, MIA PaCa-2 (% inhibition of colony forming ability)” value in [6] is 90.05%. In series [7], the “Reduced relative colony forming efficiency, MDA-MB-231 (% inhibition of colony forming ability)” value is recorded as 76.22%. Moreover, in [8], the “Reduced relative colony forming efficiency, HCT116 (% inhibition of colony forming ability)” value amounted to 86.1%. Moreover, the “Reduced relative colony forming efficiency, A549 (% inhibition of colony forming ability)” value with A549 lung cell carcinoma is 83.51%. For the same compound, the “Reduced relative colony forming efficiency, PC-3 (% inhibition of colony forming ability)” value in series [9] was determined as 92.66%. In addition, the “Reduced relative colony forming efficiency, HepG2 (% inhibition of colony forming ability)” value in series [10] was found to be 78.72%. In series [11], the “Reduced relative colony forming efficiency, T-47D (% inhibition of colony forming ability)” value is reported as 90.83%.
